Test results as given in US20240306641A1, “P-BOOSTER” (EUROCHEM ANTWERPEN, priority 2021, published 2024).

How the values were obtained:
[1] = test system: SPX1 phosphate starvation biomarker (pSPX1::GUS); assay: Chemical activity assessment: SPX1 suppression in Arabidopsis pSPX1::GUS reporter line (GUS stained area); assay type: in vivo, Arabidopsis thaliana; details: 50 μM compound, low phosphate modMS liquid medium, 96-well, 7 days after germination; low phosphate control of same plate
Procedure: (§1) All Arabidopsis plant experiments were performed using the Arabidopsis thaliana Columbia-0 background. The Arabidopsis pSPX1::GUS line is described in the […] 2008, 54: 965-975. For rice, the cultivar Nipponbare was used. For maize, the cultivars DKC 2931 and 8104 were used for regular pot experiments and sand-based pot experiments, respectively. For soybean, the cultivar Primus was used. […] The medium was solidified due to the addition of 0.6% Gelrite, unless stated otherwise. In case of vertical plates (root length and root hair measurements), the medium was supplied with 0.5% of sucrose and 1 μM (low phosphate, 1 μM KH2PO4, 9.9 mM KCl), 10 μM (low phosphate 10 μM KH2PO4, 9.9 mM KCl) or 1.25 mM KH2PO4 (high phosphate). Arabidopsis seeds were stratified for 2 days at 4° C. before germination. Seedlings were germinated in climate-controlled growth chambers at 22° C. under continuous light ([…] m^−2 s^−1). Husked rice seeds were germinated on wetted Whatman paper for 2 days at 37° C. and then transferred to Sterivent boxes or square Petri dishes with solid medium. Maize and soybean seeds were wetted 24 hours at room temperature prior to sowing in pots.
For the chemical activity assessment 3 to 8 seeds per well of Arabidopsis pSPX1::GUS line were sown in 96-well plates containing 150 μl of low phosphate modMS liquid medium containing 1% of sucrose. Compounds were added in 50 μM concentration, starting from a 5 mM stock of compounds solved in DMSO. Different chemical substances were separately added to different wells. Per plate, 16 control wells were used, 8 containing only the low phosphate medium and 1% DMSO, and 8 containing high phosphate medium and 1% DMSO. 7 days after germination, plates were scanned using a flatbed scanner (EPSON Expression 11000XL) and analyzed for leaf size. After scanning, the growth medium was replaced by GUS staining solution (see Plant Mol. Biol. Rep. 1994, 12: 37-42 for details) and incubated for 1.5 hours at 37° C. The plates were scanned a second time and analyzed for GUS signal area. Measurements of both leaf area and GUS signal area were conducted by filtering out and measure the green and blue signal, respectively using ImageJ software. If the green leaf area was 50% or less than the control, samples were omitted. Additionally, all results were visually screened for leaf size and GUS signal.
To identify new substances that suppress the expression of the SPX1 phosphate starvation biomarker, we used an Arabidopsis SPX1 reporter line pSPX1::GUS. […] This observation was confirmed in two experimental repeats.

[2] = test system: Arabidopsis thaliana Columbia-0; assay: Root hair number and length quantification, Arabidopsis vertical plate; assay type: in vivo; details: for activity at 1 µM: 1 μM compound
Procedure: as §1
Roots were imaged using a stereomicroscope or a VHX-6000. Number and length of the root hairs parallel to the medium surface was determined at 4 to 6 mm above the root meristem. Root hair length was measured using the ImageJ software.

maize cultivar DKC 2931 = assay: Regular maize pot experiment (potting soil); assay type: in vivo; details: low phosphate, 10 μM compound
Procedure: as §1
(§2) Regular Arabidopsis, soybean and maize pot experiments used an unfertilized potting soil, which was supplemented at the start of the experiment with 50 ml H2O containing 0.25 g/l NH4NO3 and 0.44 g/l (high phosphate) or no (maize and soybean) or 0.11 g/l KH2PO (Arabidopsis) for low phosphate conditions. For the sand-based maize pot experiment, sand was supplemented with 50 ml H2O containing 0.25 g/l NH4NO3 and 0.38 g/l (high phosphate) or 0.02 g/l (low phosphate) KH2PO4. Potassium was balanced via addition of KCl. Compound concentration was 10 μM, calculated based on the total water content after watering, and was added at the start of the experiment (Arabidopsis) or once a week (maize). Indexed chlorophyll contents were received via a SPAD 502 Plus Chlorophyll Meter. All parameters in the sand experiment, except the rate of leaf 4 (measured the first 4 days after emergence), were measured 19 days after sowing. Measurements in the pot experiments with potting soil were done after 4 weeks of growth, except for leaf 5, which was measured at 26 days. The long term maize pot experiment was performed on the automated Phenovision platform (see Mertens et al, 2021, https://doi.org/10.3389/fpls.2021.640914) with maize cultivars B104 and DKC2931. End point measurements occurred after 90 days (B104) or 70 days (DKC2931). Plants were grown on an unfertilized potting soil, which was fertilized bi-weekly with 50 mL modified Hoagland solution (2.5× concentrated; but with 0.25 mM KH2PO4).

maize cultivar B104 = assay: Long term maize pot experiment, Phenovision platform, B104; assay type: in vivo; details: B104, end point after 90 days
Procedure: as §2

maize cultivar DKC2931 = assay: Long term maize pot experiment, Phenovision platform, DKC2931; assay type: in vivo; details: DKC2931, end point after 70 days
Procedure: as §2

[3] = test system: Arabidopsis thaliana Columbia-0; assay: Arabidopsis horizontal plate leaf area assay; assay type: in vivo; details: Arabidopsis horizontal plates (Table 4); control without compound 63
Procedure: as §1
Arabidopsis primary root growth experiments were done on MS1/2 on vertical standing plates and roots were measured 11 days after germination. Roots were imaged using a flatbed scanner (EPSON Expression 11000XL) and root length was measured using ImageJ software. Arabidopsis shoot biomass was determined in 11 days after germination and growth on vertical standing plates with modMS. Arabidopsis leaf area was measured 21 days after germination on horizontal plates with modMS medium. Plates were scanned from the top using a flatbed scanner (EPSON Expression 11000XL) and the visible leaf area was measured using ImageJ software. Rice plate experiments used vertically standing Petri dishes containing MS1/2 medium (low phosphate—0.001 mM) solidified with 0.8% washed agar. Plant height was measured 11 days after germination. Rice box experiments used modMS medium and a low phosphate condition of 0.025 mM phosphate. Plant height was measured 13 days after germination. All growth experiments occurred with 10 μM of compound and in low phosphate conditions, unless stated otherwise. Controls always received the same DMSO concentration.

[4] = Arabidopsis thaliana, read-out: Total root hair length per root (in % compared to the control)
[5] = Arabidopsis vertical plate, high phosphate

Q: For `CCN(CCCN)c1ccccc1` [Example 2], which “GUS (SPX1) stained area normalized to the number of seeds” value (“GUS (SPX1) stained area normalized” below) [1] is on record?
A: Its value is 21 pixels.

Q: And the activity at 1 µM [2, 4]?
A: Its activity at 1 µM is 886%.

Q: And the “Average root hair length per root in high phosphate conditions” value [2, 5]?
A: Its value is 0.28 mm.

Q: And the “Root hair number in high phosphate conditions (one plane in 2 mm region)” value [2, 5]?
A: Its value is 8.

Q: And the “Total root hair length per root in high phosphate conditions” value [2, 5]?
A: The value was 0.27 cm.

Q: What about the Plant height (maize cultivar DKC 2931; 4 weeks) of the same compound?
A: The Plant height was 62 cm.

Q: What about the Shoot weight (maize cultivar DKC 2931; 4 weeks) of the same compound?
A: The Shoot weight was 4.5 g.

Q: And the “Leaf 5” value (maize cultivar DKC 2931; 26 days)?
A: Its value is 46 cm.

Q: And the Biomass (maize cultivar B104)?
A: The Biomass was 37 g.

Q: And the Plant height (maize cultivar B104)?
A: Its Plant height is 719 mm.

Q: And the “Plants with developed ears” value (maize cultivar B104)?
A: The value was 62%.

Q: What about the Sum of leaf length (maize cultivar B104) of the same compound?
A: The Sum of leaf length was 6050 mm.

Q: What about the Biomass (maize cultivar DKC2931) of the same compound?
A: Its Biomass is 31 g.

Q: What about the Plant height (maize cultivar DKC2931) of the same compound?
A: Its Plant height is 1010 mm.

Q: What about the “Plants with developed ears” value (maize cultivar DKC2931) of the same compound?
A: The value was 100%.

Q: What about the Sum of leaf length (maize cultivar DKC2931) of the same compound?
A: The Sum of leaf length was 3950 mm.

Q: `NCCCNc1ccccc1` [Example 3] was tested. Which Average leaf area [3] did it give?
A: Its Average leaf area is 69 mm^2.

Q: For `CN(CCCN)c1ccccc1` [Example 4], which Average leaf area [3] is on record?
A: The Average leaf area was 72 mm^2.

Q: Which Average leaf area [3] does the source give for `CCN(CCCNC)c1ccccc1` [Example 5] here?
A: Its Average leaf area is 65 mm^2.

Q: `CCN(CCCNC(=O)CNC(=O)c1cc(C)cc(C)c1)c1ccccc1` [Example 6] was tested. Which “GUS (SPX1) stained area normalized” value [1] did it give?
A: Its value is 8 pixels.

Q: How did the activity at 1 µM [2, 4] turn out when `CCN(C)c1ccccc1` [Example 9] was run?
A: The activity at 1 µM was 390%.

Q: What about the activity at 3 µM ([2]; Arabidopsis thaliana, 3 μM compound, read-out: Total root hair length per root (in % compared to the control)) of the same compound?
A: Its activity at 3 µM is 313%.

Q: And the activity at 10 µM ([2]; Arabidopsis thaliana, 10 μM compound, read-out: Total root hair length per root (in % compared to the control))?
A: The activity at 10 µM was 758%.

Q: `CN(CCCNC(=O)CSc1nnnn1-c1ccccc1)c1ccccc1` [Example 10] was tested. Which “GUS (SPX1) stained area normalized” value [1] did it give?
A: Its value is 298 pixels.

Q: For `Cc1ccccc1-c1nnc(SCC(=O)NCCCN(C)c2ccccc2)n1C` [Example 11], which “GUS (SPX1) stained area normalized” value [1] is on record?
A: Its value is 800 pixels.
